Laboratory results published in ChEMBL document CHEMBL3885881, “DrugMatrix”.

Species on record: Rattus norvegicus
Test: DrugMatrix - Regimen: Daily Repeat
Type: toxicity, organism-based, Sprague-Dawley
Parameters: regimen Daily Repeat, gender Male, age 6-8 weeks
Details: in vivo, po, 1500 mg/kg, route oral GAVAGE, dose level High, vehicle .5 % CMC; for ABSOLUTE BASOPHIL / ABSOLUTE EOSINOPHIL / ABSOLUTE LYMPHOCYTE / ABSOLUTE MONOCYTE / ABSOLUTE SEGMENTED NEUTROPHIL / BASOPHIL / EOSINOPHIL / ERYTHROCYTE COUNT / HEMATOCRIT / HEMOGLOBIN / LEUKOCYTE COUNT / LYMPHOCYTE / MEAN CORPUSCULAR HEMOGLOBIN / MEAN CORPUSCULAR HEMOGLOBIN CONCENTRATION / MEAN CORPUSCULAR VOLUME / MONOCYTE / NEUTROPHIL / NUCLEATED RED BLOOD CELLS / PLATELET COUNT: tissue Blood; for ALANINE AMINOTRANSFERASE / ALBUMIN / ALKALINE PHOSPHATASE / ASPARTATE AMINOTRANSFERASE / BLOOD UREA NITROGEN / CARBON DIOXIDE / CHLORIDE / CHOLESTEROL / CREATINE PHOSPHOKINASE / CREATININE / GLUCOSE / LACTATE DEHYDROGENASE / LIPASE / PHOSPHORUS / POTASSIUM / SODIUM / TOTAL BILIRUBIN / TOTAL PROTEIN / URIC ACID: tissue Plasma

Q: For `O=C(N[C@H](CO)[C@H](O)c1ccc([N+](=O)[O-])cc1)C(Cl)Cl` [CHLORAMPHENICOL], which “ABSOLUTE BASOPHIL” value (72 h, time 3 day) is on record?
A: The value was 0 CELLS/uL.

Q: And the “ABSOLUTE EOSINOPHIL” value (72 h, time 3 day)?
A: Its value is 0 CELLS/uL.

Q: What about the “ABSOLUTE LYMPHOCYTE” value (72 h, time 3 day) of the same compound?
A: The value was 14694 CELLS/uL.

Q: What about the “ABSOLUTE MONOCYTE” value (72 h, time 3 day) of the same compound?
A: The value was 312.67 CELLS/uL.

Q: And the “ABSOLUTE SEGMENTED NEUTROPHIL” value (72 h, time 3 day)?
A: The value was 793.33 CELLS/uL.

Q: And the BASOPHIL (72 h, time 3 day)?
A: The BASOPHIL was 0%.

Q: What about the EOSINOPHIL (72 h, time 3 day) of the same compound?
A: The EOSINOPHIL was 0%.

Q: What about the “ERYTHROCYTE COUNT” value (72 h, time 3 day) of the same compound?
A: Its value is 5.41 x10E6/uL.

Q: And the HEMATOCRIT (72 h, time 3 day)?
A: Its HEMATOCRIT is 34.37%.

Q: What about the HEMOGLOBIN (72 h, time 3 day) of the same compound?
A: The HEMOGLOBIN was 13.67 G/DL.

Q: And the “LEUKOCYTE COUNT” value (72 h, time 3 day)?
A: The value was 15.8 x10E3/uL.

Q: And the LYMPHOCYTE (72 h, time 3 day)?
A: The LYMPHOCYTE was 93%.

Q: What about the “MEAN CORPUSCULAR HEMOGLOBIN” value (72 h, time 3 day) of the same compound?
A: The value was 25.33 pg.

Q: What about the “MEAN CORPUSCULAR HEMOGLOBIN CONCENTRATION” value (72 h, time 3 day) of the same compound?
A: Its value is 39.83 G/DL.

Q: And the “MEAN CORPUSCULAR VOLUME” value (72 h, time 3 day)?
A: The value was 63.63 fL.

Q: What about the MONOCYTE (72 h, time 3 day) of the same compound?
A: Its MONOCYTE is 2%.

Q: What about the NEUTROPHIL (72 h, time 3 day) of the same compound?
A: The NEUTROPHIL was 5%.

Q: What about the “NUCLEATED RED BLOOD CELLS” value (72 h, time 3 day) of the same compound?
A: Its value is 0 /100WBC.

Q: What about the “PLATELET COUNT” value (72 h, time 3 day) of the same compound?
A: The value was 1264 x10E3/uL.

Q: What about the “ALANINE AMINOTRANSFERASE” value (72 h, time 3 day) of the same compound?
A: Its value is 78 u/L.

Q: And the ALBUMIN (72 h, time 3 day)?
A: Its ALBUMIN is 4.33 G/DL.

Q: And the “ALKALINE PHOSPHATASE” value (72 h, time 3 day)?
A: The value was 347 u/L.

Q: And the “ASPARTATE AMINOTRANSFERASE” value (72 h, time 3 day)?
A: Its value is 90.33 u/L.

Q: What about the “BLOOD UREA NITROGEN” value (72 h, time 3 day) of the same compound?
A: The value was 15.67 mg/dL.

Q: And the “CARBON DIOXIDE” value (72 h, time 3 day)?
A: Its value is 37.67 mmol/L.

Q: What about the CHLORIDE (72 h, time 3 day) of the same compound?
A: The CHLORIDE was 101.33 MEQ/L.

Q: What about the CHOLESTEROL (72 h, time 3 day) of the same compound?
A: The CHOLESTEROL was 63 mg/dL.

Q: And the “CREATINE PHOSPHOKINASE” value (72 h, time 3 day)?
A: The value was 530 u/L.

Q: What about the CREATININE (72 h, time 3 day) of the same compound?
A: The CREATININE was 0.15 mg/dL.

Q: And the GLUCOSE (72 h, time 3 day)?
A: The GLUCOSE was 150 mg/dL.

Q: And the “LACTATE DEHYDROGENASE” value (72 h, time 3 day)?
A: The value was 92.67 u/L.

Q: What about the LIPASE (72 h, time 3 day) of the same compound?
A: The LIPASE was 9.33 u/L.

Q: And the PHOSPHORUS (72 h, time 3 day)?
A: The PHOSPHORUS was 10.53 mg/dL.

Q: And the POTASSIUM (72 h, time 3 day)?
A: Its POTASSIUM is 6.53 MEQ/L.

Q: And the SODIUM (72 h, time 3 day)?
A: The SODIUM was 143.67 MEQ/L.

Q: And the “TOTAL BILIRUBIN” value (72 h, time 3 day)?
A: The value was 0.13 mg/dL.

Q: And the “TOTAL PROTEIN” value (72 h, time 3 day)?
A: The value was 5.6 G/DL.

Q: What about the “URIC ACID” value (72 h, time 3 day) of the same compound?
A: The value was 1.4 mg/dL.

Q: And the “ABSOLUTE BASOPHIL” value (120 h, time 5 day)?
A: Its value is 0 CELLS/uL.

Q: And the “ABSOLUTE EOSINOPHIL” value (120 h, time 5 day)?
A: The value was 0 CELLS/uL.

Q: What about the “ABSOLUTE LYMPHOCYTE” value (120 h, time 5 day) of the same compound?
A: Its value is 13927 CELLS/uL.

Q: And the “ABSOLUTE MONOCYTE” value (120 h, time 5 day)?
A: The value was 280 CELLS/uL.

Q: And the “ABSOLUTE SEGMENTED NEUTROPHIL” value (120 h, time 5 day)?
A: Its value is 1126.33 CELLS/uL.

Q: And the BASOPHIL (120 h, time 5 day)?
A: The BASOPHIL was 0%.

Q: What about the EOSINOPHIL (120 h, time 5 day) of the same compound?
A: The EOSINOPHIL was 0%.

Q: What about the “ERYTHROCYTE COUNT” value (120 h, time 5 day) of the same compound?
A: The value was 5.7 x10E6/uL.

Q: What about the HEMATOCRIT (120 h, time 5 day) of the same compound?
A: Its HEMATOCRIT is 35.27%.

Q: And the HEMOGLOBIN (120 h, time 5 day)?
A: Its HEMOGLOBIN is 14.27 G/DL.

Q: And the “LEUKOCYTE COUNT” value (120 h, time 5 day)?
A: Its value is 15.33 x10E3/uL.

Q: What about the LYMPHOCYTE (120 h, time 5 day) of the same compound?
A: The LYMPHOCYTE was 90.67%.

Q: And the “MEAN CORPUSCULAR HEMOGLOBIN” value (120 h, time 5 day)?
A: The value was 25.07 pg.

Q: And the “MEAN CORPUSCULAR HEMOGLOBIN CONCENTRATION” value (120 h, time 5 day)?
A: The value was 40.5 G/DL.

Q: What about the “MEAN CORPUSCULAR VOLUME” value (120 h, time 5 day) of the same compound?
A: Its value is 61.9 fL.

Q: And the MONOCYTE (120 h, time 5 day)?
A: The MONOCYTE was 2%.

Q: What about the NEUTROPHIL (120 h, time 5 day) of the same compound?
A: Its NEUTROPHIL is 7.33%.

Q: And the “NUCLEATED RED BLOOD CELLS” value (120 h, time 5 day)?
A: Its value is 0.33 /100WBC.

Q: What about the “PLATELET COUNT” value (120 h, time 5 day) of the same compound?
A: The value was 1090 x10E3/uL.

Q: What about the “ALANINE AMINOTRANSFERASE” value (120 h, time 5 day) of the same compound?
A: Its value is 63 u/L.

Q: And the ALBUMIN (120 h, time 5 day)?
A: The ALBUMIN was 4.13 G/DL.

Q: What about the “ALKALINE PHOSPHATASE” value (120 h, time 5 day) of the same compound?
A: The value was 266.33 u/L.

Q: And the “ASPARTATE AMINOTRANSFERASE” value (120 h, time 5 day)?
A: The value was 100.33 u/L.

Q: And the “BLOOD UREA NITROGEN” value (120 h, time 5 day)?
A: Its value is 22.33 mg/dL.

Q: And the “CARBON DIOXIDE” value (120 h, time 5 day)?
A: Its value is 35 mmol/L.

Q: And the CHLORIDE (120 h, time 5 day)?
A: The CHLORIDE was 103 MEQ/L.

Q: What about the CHOLESTEROL (120 h, time 5 day) of the same compound?
A: Its CHOLESTEROL is 56 mg/dL.

Q: And the “CREATINE PHOSPHOKINASE” value (120 h, time 5 day)?
A: Its value is 359.67 u/L.

Q: What about the CREATININE (120 h, time 5 day) of the same compound?
A: Its CREATININE is 0.2 mg/dL.

Q: What about the GLUCOSE (120 h, time 5 day) of the same compound?
A: Its GLUCOSE is 144 mg/dL.

Q: And the “LACTATE DEHYDROGENASE” value (120 h, time 5 day)?
A: The value was 180 u/L.

Q: What about the LIPASE (120 h, time 5 day) of the same compound?
A: The LIPASE was 8.67 u/L.

Q: What about the PHOSPHORUS (120 h, time 5 day) of the same compound?
A: Its PHOSPHORUS is 9.33 mg/dL.

Q: What about the POTASSIUM (120 h, time 5 day) of the same compound?
A: The POTASSIUM was 9.76 MEQ/L.

Q: What about the SODIUM (120 h, time 5 day) of the same compound?
A: The SODIUM was 143.67 MEQ/L.

Q: And the “TOTAL BILIRUBIN” value (120 h, time 5 day)?
A: The value was 0.17 mg/dL.

Q: And the “TOTAL PROTEIN” value (120 h, time 5 day)?
A: Its value is 5.23 G/DL.

Q: And the “URIC ACID” value (120 h, time 5 day)?
A: Its value is 1.3 mg/dL.
